One test addresses T1, AgORco+AgOR10 (Anopheles gambiae, UniProt Q7QCC7).
T1 construct: expressed in transfected cells
T1 sequence (Q7QCC7 1-478): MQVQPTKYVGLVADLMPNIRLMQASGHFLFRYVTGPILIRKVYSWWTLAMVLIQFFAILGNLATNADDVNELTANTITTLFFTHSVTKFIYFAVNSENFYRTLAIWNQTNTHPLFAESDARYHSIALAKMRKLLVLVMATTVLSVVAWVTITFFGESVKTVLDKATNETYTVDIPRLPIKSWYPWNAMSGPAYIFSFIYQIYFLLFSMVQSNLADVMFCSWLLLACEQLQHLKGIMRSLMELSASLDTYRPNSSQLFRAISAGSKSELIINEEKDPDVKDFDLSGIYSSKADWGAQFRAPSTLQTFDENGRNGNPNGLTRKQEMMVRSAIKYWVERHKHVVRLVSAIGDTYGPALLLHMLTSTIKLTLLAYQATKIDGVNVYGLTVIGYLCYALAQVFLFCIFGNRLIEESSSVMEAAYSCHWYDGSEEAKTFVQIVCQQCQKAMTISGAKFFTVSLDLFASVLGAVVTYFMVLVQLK
Kind of test: Fluo-4 Ca2+ imaging, HEK293 cells expressing Orco+AgOR10. It counts as cell-based. The following applies: AgORco+AgOR10 cells; not seen in control cells. An outline of the steps: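 Stable Flp-In T-REx 293 lines co-expressing Orco and OR, induced overnight with 0.3 u-g/ul tetracycline, loaded with 1.8 uM Fluo-4 AM plus 2.5 mM probenecid for 45 min at 37 °C. Ca2+ mobilization read after 20 s baseline and compound addition; Max/Min ratios normalized to the maximum responder.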

Test [1] has as its system Un-transfected HEK293 cells. Kind of test: Whole-cell patch clamp, un-transfected HEK293 control cells. It counts as cell-based, human. The protocol: Currents from OR-expressing HEK293 cells were amplified with an Axopatch 200b Amplifier (Axon Instruments) and digitized through a Digidata 1322A (Axon Instruments). Electrophysiological data was recorded and analyzed using pCLAMP 10 (Axon Instruments). Electrodes were fabricated from quartz tubing (Sutter Instruments) and pulled to 4-6 MiΩ for whole cell recording. Electrodes were filled with internal solution (120 mM KCl, 30 mM D-glucose, 10 mM HEPES, 2 mM MgCl2, 1.1 mM EGTA, and 0.1 CaCl2) (pH 7.35, 280 mOsm). External (bath) solution contained 130 mM NaCl, 34 mM D-glucose, 10 mM HEPES, 1.5 mM CaCl2), 1.3 mM KH2PO4, and 0.5 MgSO4 (pH 7.35, 300 mOsm). Compounds were diluted in external solution and locally perfused to the recording cell using Perfusion Pencil (Automate Scientific) and controlled by a ValveLink 8.2 controller (Automate Scientific). Whole cell recordings were sampled at 10 kHz and filtered at 5 kHz. Outside-out patches were obtained using 10-15MΩ electrodes pulled from standard glass capillaries (World Precision Instruments) and fire-polished with an MF-830 micro forge (Narishige). Single channel recordings were sampled at 20 kHz. Recordings were reduced to 1 kHz and low-pass filtered at 500 Hz for display and analysis using QuB (SUNY at Buffalo).
In general terms: In patch-clamp work, channel activity is measured electrically.

The test system of test [2] is CO2 sensitive CpA neuron (does not express AgORco). Kind of test: Single sensillum recording, capitate peg sensilla, CpA neuron. It is filed as in vivo, Anopheles gambiae. The following applies: CO2 pulse at completion of assay. The protocol:
(§1) Single sensillum recordings were performed on 4-7 day old, non-bloodfed Anopheles gambiae females maintained on 10% sucrose and a 12/12 light dark cycle. Legs, wings and antennae were removed from cold-anesthetized females that were then restrained on double-stick tape with thread. A glass reference electrode filled with Sensillar lymph ringers (SLR)(Xu, 2005) was placed in the eye and the recording electrode filled with DMSO or VUAA1 diluted in SLR was used to puncture sensilla at their base. Responses were recorded and digitized using a Syntech IDAC-4 and analyzed with AutoSpike software (Syntech). New glass recording pipettes were used for every recording. Data was sampled at 12 kHz.
(§2) The inventors next performed single unit, extracellular electrophysiological recordings on adult female An. gambiae to determine whether VUAA1 could activate AgORco-expressing odorant receptor neurons (ORNs) in vivo. ORNs, which express AgORco and a conventional OR are enclosed within the hair-like sensilla present on olfactory tissues. […] CpA is clearly distinguished from CpB/C by its large action potential amplitude. The action potential amplitudes of CpB and CpC are much smaller and in some preparations indistinguishable from each other; as a result, the spike activity of CpB and CpC neurons were binned for data analysis. […]

Test [3] has as its system AgORco-expressing CpB/C neurons. Kind of test: Single sensillum recording, capitate peg sensilla, CpB/C neurons. It counts as in vivo, Anopheles gambiae. The following applies: compound delivered via glass recording electrode. The protocol:
as §1, §2

`CCc1ccc(NC(=O)CSc2nnc(-c3cccnc3)n2CC)cc1` [VUAA1, 2-((4-ethyl-5-(pyridin-3-yl)-4H-1,2,4-triazol-3-yl)thio)-N-(4-ethylphenyl)acetamide]: the “response in plate-based calcium imaging” value on AgORco+AgOR10 was “concentration-dependent responses”. Further, in test [1], the whole-cell current response result is recorded as “did not respond”. Also, the CpA neuron activity result in test [2] was “unchanged”. Besides, the “spike frequency of CpB/C neurons” value in test [3] was “increased the spike frequency of CpB/C neurons in a dose-dependent manner”.

These data come from patent publication US11484032B2, “Compositions for inhibition of insect sensing” (Vanderbilt University, priority 2011, dated 2022).
